Test [1] deals with C. difficile infection (CDI). As to conditions: patients; Louie et al. 2011; cited from earlier work.
Test [2] deals with C. difficile strain 630. The format is in vivo, Golden Syrian hamsters. As to conditions: PO twice per day; Example 5ae 50 mg/kg 7 days; vancomycin 5 mg/kg 5 days.
Test [3] deals with C. difficile. In kind it is in vivo, C57/BL6 mice.
The target in test [4] is T1, C. difficile full-length toxin TcdB (Clostridioides difficile, UniProt P18177).
T1 construct: C. difficile full-length toxins (TcdA or TcdB); purchased EMD Millipore 616377
T1 sequence (P18177 2-2366 limits assumed): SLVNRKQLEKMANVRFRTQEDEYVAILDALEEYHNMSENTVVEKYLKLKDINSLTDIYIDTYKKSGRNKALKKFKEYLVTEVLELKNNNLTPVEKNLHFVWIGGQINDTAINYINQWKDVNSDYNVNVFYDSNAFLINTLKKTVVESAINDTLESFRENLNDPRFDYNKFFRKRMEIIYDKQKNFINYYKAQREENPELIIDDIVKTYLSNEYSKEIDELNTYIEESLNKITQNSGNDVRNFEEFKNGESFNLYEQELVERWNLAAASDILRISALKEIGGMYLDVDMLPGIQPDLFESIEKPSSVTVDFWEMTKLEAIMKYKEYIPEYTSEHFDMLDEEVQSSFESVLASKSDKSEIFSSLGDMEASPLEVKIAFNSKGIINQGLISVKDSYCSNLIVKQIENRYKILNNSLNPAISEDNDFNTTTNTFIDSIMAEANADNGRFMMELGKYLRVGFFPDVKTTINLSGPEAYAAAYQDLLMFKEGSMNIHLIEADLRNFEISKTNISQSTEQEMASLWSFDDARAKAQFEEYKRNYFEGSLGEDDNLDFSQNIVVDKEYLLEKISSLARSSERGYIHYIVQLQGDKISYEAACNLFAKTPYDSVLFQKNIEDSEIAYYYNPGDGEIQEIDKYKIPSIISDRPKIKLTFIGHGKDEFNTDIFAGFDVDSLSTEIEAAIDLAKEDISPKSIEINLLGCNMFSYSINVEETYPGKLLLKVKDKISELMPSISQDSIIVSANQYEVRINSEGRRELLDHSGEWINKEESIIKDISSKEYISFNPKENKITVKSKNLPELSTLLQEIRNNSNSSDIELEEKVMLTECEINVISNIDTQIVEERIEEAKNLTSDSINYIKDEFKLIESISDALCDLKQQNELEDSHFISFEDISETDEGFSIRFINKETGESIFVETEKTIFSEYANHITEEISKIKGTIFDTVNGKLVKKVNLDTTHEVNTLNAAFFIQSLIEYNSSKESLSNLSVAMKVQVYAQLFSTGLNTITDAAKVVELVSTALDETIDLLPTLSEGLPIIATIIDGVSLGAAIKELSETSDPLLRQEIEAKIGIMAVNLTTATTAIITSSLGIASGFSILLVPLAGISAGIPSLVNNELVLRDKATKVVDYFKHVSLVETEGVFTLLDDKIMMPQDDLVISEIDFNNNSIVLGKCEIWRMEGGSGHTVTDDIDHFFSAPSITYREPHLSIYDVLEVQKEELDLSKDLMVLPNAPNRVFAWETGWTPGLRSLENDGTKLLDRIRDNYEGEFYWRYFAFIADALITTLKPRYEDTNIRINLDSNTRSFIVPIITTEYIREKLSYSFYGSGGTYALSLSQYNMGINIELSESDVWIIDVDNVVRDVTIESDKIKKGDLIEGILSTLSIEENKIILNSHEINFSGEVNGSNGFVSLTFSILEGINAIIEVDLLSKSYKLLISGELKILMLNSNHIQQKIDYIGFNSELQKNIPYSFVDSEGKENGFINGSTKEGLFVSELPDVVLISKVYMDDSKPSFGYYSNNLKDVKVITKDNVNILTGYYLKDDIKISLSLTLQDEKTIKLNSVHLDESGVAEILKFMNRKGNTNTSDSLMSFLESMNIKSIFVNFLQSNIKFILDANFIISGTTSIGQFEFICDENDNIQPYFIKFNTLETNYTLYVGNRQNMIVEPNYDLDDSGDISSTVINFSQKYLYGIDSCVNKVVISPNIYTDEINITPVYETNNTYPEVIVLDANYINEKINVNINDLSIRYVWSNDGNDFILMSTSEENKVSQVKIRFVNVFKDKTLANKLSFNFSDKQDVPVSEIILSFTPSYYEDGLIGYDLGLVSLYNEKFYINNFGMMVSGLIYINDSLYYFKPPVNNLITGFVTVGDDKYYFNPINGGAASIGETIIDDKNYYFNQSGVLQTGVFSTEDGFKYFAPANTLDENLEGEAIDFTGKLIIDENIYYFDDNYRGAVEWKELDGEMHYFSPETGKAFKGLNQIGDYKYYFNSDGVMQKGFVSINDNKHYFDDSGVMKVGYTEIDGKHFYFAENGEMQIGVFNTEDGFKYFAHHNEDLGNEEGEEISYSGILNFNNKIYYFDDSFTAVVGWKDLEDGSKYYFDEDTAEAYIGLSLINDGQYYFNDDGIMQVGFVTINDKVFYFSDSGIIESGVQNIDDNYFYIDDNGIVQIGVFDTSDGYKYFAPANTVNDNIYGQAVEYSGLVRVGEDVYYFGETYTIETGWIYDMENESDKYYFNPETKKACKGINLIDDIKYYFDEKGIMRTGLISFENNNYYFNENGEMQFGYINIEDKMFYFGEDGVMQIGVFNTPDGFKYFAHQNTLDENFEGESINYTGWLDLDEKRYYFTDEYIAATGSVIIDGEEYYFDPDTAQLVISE
Description: cell-based.

In test [5] the test system is C. difficile strain VPI 10463. Put plainly: Acute murine C. difficile infection model. The format is in vivo, C57BL/6 mice. As to conditions: PO; 52 hours after infection. From the text: In a hospital environment, C. difficile infection occurs when the patient receives an antibiotic treatment that disrupts the normal gut microflora and is exposed to C. difficile spores. The patient often fails to mount a protective immune response against the acute C. difficile infection. (Rupnik, Wilcox et al. 2009). To study the acute C. difficile infection, we established a murine C. difficile infection model. Details of the infection model are provided in the “Experimental Protocol” (below).
In brief, female C57BL/6 mice were administered the following antibiotics: colistin (0.042 units/mL), gentamicin (0.035 mg/mL), kanamycin (0.4 mg/mL), metronidazole (0.215 mg/mL) and vancomycin (0.045 mg/mL) in drinking water for 3 days. The administered antibiotics disrupted the normal gut microflora in mice. On the 4th day, mice received oral administration of 0.5 mL volume containing ˜100 spores produced from a virulent clinical C. difficile isolate (strain VPI 10463). In this acute murine C. difficile infection model, we observed a similar time course of infection when compared to that of clinical patients.
Using the developed murine C. difficile infection model (Example 67), we evaluated our test compounds for their efficacy in reducing weight loss and gut inflammation caused by the acute C. difficile infection. We tested the efficacy of Example 6a and Example 5ae and used eight (8) animals in each group.
We further tested the efficacy of the Example 6a, Example 5ae, Example 4cl, and Example 5al compounds by PO administration. Vancomycin was used as a positive control. Three (3) experiments were performed utilizing a total of five (5) to sixteen (16) animals in each group.
C. difficile strain VPI 10463 was grown for four (4) days in 10 ml of BHI in a Bactron anaerobic workstation (Shel Lab). The culture was centrifuged at 2,700 g for 10 minutes. The bacterial pellet was washed with 10 mL of PBS and the centrifugation was repeated. The pellet was then re-suspended in 10 mL of PBS, incubated at 56° C. for 10 minutes, and then was frozen at −20° C. until used. Titers of spore stocks were determined by serial dilution and plating onto BHI and with 1% taurocholate and counting of colonies after incubation for 24 hours at 37° C. using the GasPak EZ Anaerobe Pouch System.
We utilized an established C. difficile murine infection model (Chen, Katchar et al. 2008). To render them susceptible to infection, female C57BL/6 mice (˜10 weeks old and weighing ˜20 g) were administered the following antibiotics (Sigma Aldrich) in drinking water for 3 days (Days −6 to −3): colistin (0.042 units/mL), gentamicin (0.035 mg/mL), kanamycin (0.4 mg/mL), metronidazole (0.215 mg/mL) and vancomycin (0.045 mg/mL). Based upon an expected water consumption of 100 mL/kg/day, the approximate doses of these antibiotics will be as follows: colistin (4.2 units/kg/day), gentamicin (3.5 mg/kg/day), kanamycin (40 mg/kg/day), metronidazole (21.5 mg/kg/day) and vancomycin (4.5 mg/kg/day). The animals were provided with regular drinking water for two days (Day −2 and Day −1), and the next day (Day 0) they were administered clindamycin phosphate (1 mg/mL solution in PBS) at 10 mL/kg by intraperitoneal injection, for a final dose of 10 mg/kg body weight. The following day (Day 1), they were orally gavaged with ˜100 spores in a 0.5 ml volume.
Compounds were administered beginning ˜8 hours after infection, and the animals were dosed twice per day for two days (Days 2-3) with a total of four doses. Compounds were prepared as 5 mg/mL suspensions in 20% PEG-400, 0.4% carboxymethyl cellulose and 0.2% Tween 80 and administered at a dose of 10 mL/kg, for a final dose of 50 mg/kg body weight.
Animals were observed and weighed two (2) to (3) times daily. Animals that were obviously moribund or had lost >20% of their initial body weight were euthanized. Sub-groups of animals were euthanized four (4) hours after the final compound dose (52 hours after infection). […]

The target in test [6] is T2, C. difficile full-length toxin TcdA (Clostridioides difficile, UniProt P16154).
T2 construct: C. difficile full-length toxins (TcdA or TcdB); purchased Enzo Life Sciences BML-G140-0050
T2 sequence (P16154 whole entry, looked up): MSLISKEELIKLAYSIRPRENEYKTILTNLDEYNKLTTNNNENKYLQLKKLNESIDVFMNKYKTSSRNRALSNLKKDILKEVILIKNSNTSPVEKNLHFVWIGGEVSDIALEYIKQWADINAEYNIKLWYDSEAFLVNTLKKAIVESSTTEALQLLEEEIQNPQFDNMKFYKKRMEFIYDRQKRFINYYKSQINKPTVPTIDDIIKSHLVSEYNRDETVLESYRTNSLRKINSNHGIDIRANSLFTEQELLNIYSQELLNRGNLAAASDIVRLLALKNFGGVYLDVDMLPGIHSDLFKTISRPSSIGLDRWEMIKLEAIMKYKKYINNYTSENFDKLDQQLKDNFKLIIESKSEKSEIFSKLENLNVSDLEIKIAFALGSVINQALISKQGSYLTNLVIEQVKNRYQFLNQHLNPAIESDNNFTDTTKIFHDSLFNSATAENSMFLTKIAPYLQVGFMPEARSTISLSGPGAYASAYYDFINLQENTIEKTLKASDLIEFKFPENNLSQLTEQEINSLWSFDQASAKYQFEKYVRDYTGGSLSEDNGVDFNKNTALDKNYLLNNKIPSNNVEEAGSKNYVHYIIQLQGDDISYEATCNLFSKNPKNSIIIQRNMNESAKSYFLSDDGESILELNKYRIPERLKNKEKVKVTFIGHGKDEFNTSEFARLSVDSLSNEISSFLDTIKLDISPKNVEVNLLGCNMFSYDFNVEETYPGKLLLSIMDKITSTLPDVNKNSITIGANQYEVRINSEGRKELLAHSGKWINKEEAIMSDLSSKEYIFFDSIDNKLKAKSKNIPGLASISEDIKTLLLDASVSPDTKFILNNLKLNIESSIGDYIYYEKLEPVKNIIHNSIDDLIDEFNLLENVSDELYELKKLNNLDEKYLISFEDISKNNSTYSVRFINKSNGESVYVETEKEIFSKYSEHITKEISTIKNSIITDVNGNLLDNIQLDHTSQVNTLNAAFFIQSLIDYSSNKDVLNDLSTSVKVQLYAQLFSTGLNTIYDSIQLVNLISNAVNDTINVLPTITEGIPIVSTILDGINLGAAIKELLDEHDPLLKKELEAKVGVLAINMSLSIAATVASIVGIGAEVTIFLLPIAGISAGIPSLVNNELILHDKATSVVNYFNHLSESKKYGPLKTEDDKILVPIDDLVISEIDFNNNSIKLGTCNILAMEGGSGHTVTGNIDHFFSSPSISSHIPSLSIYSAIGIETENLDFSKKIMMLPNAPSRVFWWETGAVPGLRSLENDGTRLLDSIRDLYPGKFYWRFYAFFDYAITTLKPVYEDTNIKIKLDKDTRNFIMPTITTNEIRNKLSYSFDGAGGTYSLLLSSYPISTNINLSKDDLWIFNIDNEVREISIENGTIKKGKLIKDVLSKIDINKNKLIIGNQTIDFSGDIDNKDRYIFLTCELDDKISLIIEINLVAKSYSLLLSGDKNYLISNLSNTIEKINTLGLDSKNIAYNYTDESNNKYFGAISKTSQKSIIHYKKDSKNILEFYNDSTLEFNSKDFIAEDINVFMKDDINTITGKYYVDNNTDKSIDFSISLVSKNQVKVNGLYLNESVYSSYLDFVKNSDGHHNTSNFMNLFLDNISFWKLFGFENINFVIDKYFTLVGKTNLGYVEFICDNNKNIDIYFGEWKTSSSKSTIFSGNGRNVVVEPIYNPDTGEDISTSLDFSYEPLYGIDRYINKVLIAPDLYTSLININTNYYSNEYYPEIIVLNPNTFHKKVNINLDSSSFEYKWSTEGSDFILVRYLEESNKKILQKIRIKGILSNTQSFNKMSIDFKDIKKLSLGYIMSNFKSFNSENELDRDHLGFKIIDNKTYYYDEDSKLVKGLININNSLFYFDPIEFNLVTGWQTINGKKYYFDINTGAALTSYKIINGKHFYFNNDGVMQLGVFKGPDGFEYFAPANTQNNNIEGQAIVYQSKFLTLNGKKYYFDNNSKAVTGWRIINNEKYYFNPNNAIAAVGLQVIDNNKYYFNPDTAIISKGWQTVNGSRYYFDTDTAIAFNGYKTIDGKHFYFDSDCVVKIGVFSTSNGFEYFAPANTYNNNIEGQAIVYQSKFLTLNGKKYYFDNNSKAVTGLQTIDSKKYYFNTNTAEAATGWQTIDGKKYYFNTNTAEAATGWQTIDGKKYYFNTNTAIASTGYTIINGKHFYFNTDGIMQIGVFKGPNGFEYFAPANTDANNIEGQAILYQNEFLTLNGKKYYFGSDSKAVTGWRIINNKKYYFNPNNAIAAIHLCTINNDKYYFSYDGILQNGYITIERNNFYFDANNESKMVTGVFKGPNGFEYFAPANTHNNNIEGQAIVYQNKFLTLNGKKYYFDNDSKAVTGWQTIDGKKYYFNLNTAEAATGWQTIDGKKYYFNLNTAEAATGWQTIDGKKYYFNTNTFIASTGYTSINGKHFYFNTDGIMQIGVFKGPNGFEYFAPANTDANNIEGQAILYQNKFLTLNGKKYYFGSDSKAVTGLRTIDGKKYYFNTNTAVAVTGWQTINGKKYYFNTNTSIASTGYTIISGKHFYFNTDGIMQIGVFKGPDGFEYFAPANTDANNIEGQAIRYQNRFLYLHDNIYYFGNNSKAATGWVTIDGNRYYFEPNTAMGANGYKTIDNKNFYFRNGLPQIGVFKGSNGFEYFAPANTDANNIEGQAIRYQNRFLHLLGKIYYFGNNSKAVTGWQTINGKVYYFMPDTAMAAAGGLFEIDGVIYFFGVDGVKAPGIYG
Put plainly: cell-based.

Test [7] has as its target T3, recombinant glucosyltransferase domain of C. difficile Toxin B/TcdB (Clostridioides difficile, UniProt P18177).
T3 construct: 6-His (C); purchased R&D Systems 6246-GT
Put plainly: biochemical.

In test [8] the test system is C. difficile toxin (TcdA and TcdB, ~1:1). Description: Murine C. difficile toxin model (intrarectal toxin). In kind it is in vivo, C57BL/6 mice. As to conditions: for IL-1β (% Inhibition) / MPO (% Inhibition): murine C. difficile toxin model, PO, 50 mg/kg body weight; for IL-1β in colon tissue / MPO in colon tissue / toxin effect on colon length: oral (PO), 50 mg/kg, intrarectal toxin 12.5 μg. The method, then:
In the following studies, we established a murine C. difficile toxin model with modifications from a published murine model (Hirota, Iablokov et al. 2012). Details of the murine C. difficile toxin model are described in the “Experimental Protocols” (below). C. difficile toxins were isolated from a culture of the C. difficile strain VPI 10463. C. difficile toxins consisted of TcdA and TcdB (˜1:1 ratio of TcdA:TcdB). Respective TcdA and TcdB concentrations were determined by enzyme-linked immunosorbant assay (ELISA). In our mouse model, C. difficile toxins were administered intrarectally to evaluate their pathological effects.
We administered C. difficile toxin (12.5 μg/mouse) via intrarectal instillation into female C57BL/6 mice. Four (4) animals were used in each group. Four (4) hours after the toxin administration, the mice were euthanized. The colons were excised from the animals and washed with phosphate buffered saline (PBS). The colon lengths were measured. Excised colon tissues were stored at −70° C. for chemical analysis of interleukin-1β(IL-1β) and myeloperosidase (MPO) in tissues, which are the hallmarks of colon inflammation. Excised colon tissues were also stored at room temperature in 10% neutral buffered formalin for histopathological analysis.
Using the murine C. difficile toxin model (Example 61), we evaluated the efficacy of Example 6a in reducing the C. difficile toxin activity. In this study, the isolated toxin (12.5 μg) was diluted in 50 μl of PBS and mixed with a 50 μl suspension of Example 6a (10 mg/mL) in 1% carboxymethyl cellulose and 0.5% Tween 80 to achieve a fixed dose of […] of Example 6a (0.5 mg in mice weighing ˜20 g) and C. difficile toxin (12.5 μg). Three (3) animals were used in each group.
In this study, we evaluated the efficacy of Example 6a via different routes of administration (i.e., oral (PO) and intraperitoneal (IP) administrations) in the same murine C. difficile toxin model (Example 61). In both PO and IP dosages, Example 6a was prepared as 5 mg/mL solutions in 20% PEG-400, 0.4% carboxymethyl cellulose and 0.2% Tween 80. Example 6a was administered at a final dose of 50 mg/kg body weight. Three (3) mice were used in each group (i.e., vehicle (control), PO and IP).
Using the murine C. difficile toxin model (Example 63), we further tested the efficacy of four (4) additional compounds (i.e., Example 6a, Example 5ae, Example 4cl, and Example 5al) via PO administration. All of the compounds were dosed orally at 50 mg/kg body weight. In three separate studies a total of three (3) to fourteen (14) mice were used in each group.
We evaluated the efficacy of additional compounds in reducing C. difficile toxicity. Using the PO administration (Example 63), we further tested 30 compounds (Table 34). All of the compounds were dosed orally at 50 mg/kg body weight. Three (3) to fourteen (14) animals were used for each compound. % inhibition was determined by the following formula: […]
An overnight culture of C. difficile strain VPI 10463 (American Type Culture Collection) was grown at 37° C. in Brain-Heart Infusion (BHI) broth using the GasPak EZ Anaerobe Pouch System (Becton Dickinson). 2 mL of the culture was added to 28 mL of phosphate buffered saline (PBS) in a gamma-irradiated, 10,000 molecular weight cut-off, 30-70 ml Slide-A-Lyzer G2 dialysis cassette (Pierce). This cassette was submerged in 1 L of BHI broth in a 2 L beaker and incubated under anaerobic conditions for 5 days at 37° C. The culture was then transferred to a 50 mL conical tube and the cassette was washed with 10 mL of PBS. The combined culture and wash were centrifuged at 2,000 g for 20 minutes to pellet the bacteria and the supernatant was filtered through a 0.2 μm syringe filter. The filtrate was then applied to a 20 mL 150 K molecular weight cut-off concentration column (Pierce) and centrifuged at 2,000 g for 15 minutes. Concentrated supernatant was stored at 4° C. […]

pIC50: −log10 of the molar value.

Turning to `CCc1c(Cl)c(O)c(Cl)c(O)c1C(=O)O[C@H]1[C@H](O)[C@H](OC)[C@H](OC/C2=C\C=C\C[C@H](O)/C(C)=C/[C@H](CC)[C@@H](O[C@@H]3OC(C)(C)[C@@H](OC(=O)C(C)C)[C@H](O)[C@@H]3O)/C(C)=C/C(C)=C/C[C@@H]([C@@H](C)O)OC2=O)O[C@@H]1C` [fidaxomicin], the CDI recurrence in test [1] is given as 8%.

Consider `CN[C@H](CC(C)C)C(=O)N[C@H]1C(=O)N[C@@H](CC(N)=O)C(=O)N[C@H]2C(=O)N[C@H]3C(=O)N[C@H](C(=O)N[C@H](C(=O)O)c4cc(O)cc(O)c4-c4cc3ccc4O)[C@H](O)c3ccc(c(Cl)c3)Oc3cc2cc(c3O[C@@H]2O[C@H](CO)[C@@H](O)[C@H](O)[C@H]2O[C@H]2C[C@](C)(N)[C@H](O)[C@H](C)O2)Oc2ccc(cc2Cl)[C@H]1O` [vancomycin, reference compound], for which, in test [1], the CDI recurrence was 25%. The body weight loss entry in test [2] is recorded as “prevented any significant weight loss”. Further, the “weight loss, days 8-9 after infection” value in test [3] (relapse model, PO, vancomycin 20 mg/kg once per day for five days) is “significant weight loss”. For the same compound, the “weight loss during treatment (Days 1-5)” value in test [3] (vancomycin 20 mg/kg oral, once per day for five days) is recorded as “prevented weight loss”.

For `COc1ccc(NC(=O)c2ccc(CN3C(=O)c4ccc(Cl)cc4NC(=O)[C@H]3Cc3ccccn3)cc2C)nc1` [Example 4cl, (R)-4-((8-Chloro-2,5-dioxo-3-(pyridin-2-ylmethyl)-2,3-dihydro-1H-benzo[e][1,4]diazepin-4(5H)-yl)methyl)-N-(5-methoxypyridin-2-yl)-2-methylbenzamide], the pIC50 – broadly, −log10 of the IC50, conventionally taken in molar units – in test [4] was more than 7.00. Moreover, the “toxin effect on colon length” value in test [5] is on record as “significantly reduced the toxin effect on colon length”. For the same compound, the pIC50 in test [6] is 6.00 to 7.00. Also, the pIC50 in test [7] is more than 7.00. In test [8], the “IL-1β (% Inhibition)” value came out at 100%, the “MPO (% Inhibition)” value is 100%, the “IL-1β in colon tissue” value is reported as “reduced the levels of IL-1β” and the “MPO in colon tissue” value is “reduced”. The “toxin effect on colon length” value in test [8] was “reduced the C. difficile toxin-mediated effects on colon length”.

Regarding `Cc1cc(CN2C(=O)c3ccc(Cl)cc3NC(=O)[C@H]2Cc2ccccn2)ccc1C(=O)Nc1ccc(C(F)(F)F)cn1` [Example 5al, (R)-4-((8-Chloro-2,5-dioxo-3-(pyridin-2-ylmethyl)-2,3-dihydro-1H-benzo[e][1,4]diazepin-4(5H)-yl)methyl)-2-methyl-N-(5-(trifluoromethyl)pyridin-2-yl)benzamide], in test [4], the pIC50 is more than 7.00. Besides, in test [5], the “IL-1β in colon tissues” value was “reduced the level of IL-1β”, the “MPO in colon tissues” value is given as “reduced” and the “toxin effect on colon length” value is “significantly reduced the toxin effect on colon length”. In addition, the pIC50 in test [6] was 5.00 to 6.00. The pIC50 in test [7] was more than 7.00. Also, in test [8], the “IL-1β (% Inhibition)” value is listed as 81%, the “MPO (% Inhibition)” value is 91%, the “IL-1β in colon tissue” value is “reduced the levels of IL-1β” and the “MPO in colon tissue” value was “reduced”. Besides, the “toxin effect on colon length” value in test [8] was “reduced the C. difficile toxin-mediated effects on colon length”.

`Cc1ccc(NC(=O)c2ccc(CN3C(=O)c4ccc(Cl)cc4NC(=O)[C@H]3Cc3ccccn3)cc2C)nc1` [Example 4ck, (R)-4-((8-Chloro-2,5-dioxo-3-(pyridin-2-ylmethyl)-2,3-dihydro-1H-benzo[e][1,4]diazepin-4(5H)-yl)methyl)-2-methyl-N-(5-methylpyridin-2-yl)benzamide]: the pIC50 in test [4] is more than 7.00; in test [6] it was 6.00 to 7.00; in test [7], more than 7.00. For the same compound, the “IL-1β (% Inhibition)” value in test [8] is on record as 82%. Moreover, the “MPO (% Inhibition)” value in test [8] was determined as 79%.

Values taken from US10669242B2 (priority 2016, dated 2020).
